Among the data in ChEMBL document CHEMBL1201862, “PubChem BioAssay data set” (2004) are IC50 and EC50 values, retold here.

The target in assay [1] is T1, Alkaline phosphatase, tissue-nonspecific isozyme (Homo sapiens, UniProt P05186).
T1 sequence (P05186 whole entry): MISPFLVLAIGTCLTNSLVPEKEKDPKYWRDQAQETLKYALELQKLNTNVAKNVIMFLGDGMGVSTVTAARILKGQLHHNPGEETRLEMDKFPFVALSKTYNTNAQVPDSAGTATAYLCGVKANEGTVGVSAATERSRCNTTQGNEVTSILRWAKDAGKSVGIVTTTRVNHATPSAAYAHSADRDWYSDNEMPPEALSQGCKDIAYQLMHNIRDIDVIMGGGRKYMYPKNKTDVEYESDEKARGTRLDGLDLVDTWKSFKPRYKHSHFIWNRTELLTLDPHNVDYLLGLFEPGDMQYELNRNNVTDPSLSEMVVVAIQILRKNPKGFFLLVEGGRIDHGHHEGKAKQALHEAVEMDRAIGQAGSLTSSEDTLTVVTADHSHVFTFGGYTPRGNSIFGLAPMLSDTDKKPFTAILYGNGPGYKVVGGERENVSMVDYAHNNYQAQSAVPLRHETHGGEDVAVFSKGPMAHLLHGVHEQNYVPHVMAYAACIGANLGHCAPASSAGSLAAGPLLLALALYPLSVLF
The experiment in a line: human TNAP enzyme inhibitors, SAR follow-up, biochemical, luminescent, dose response (AID 1056).

Assay [2] has as its target Phosphoethanolamine/phosphocholine phosphatase (Homo sapiens, UniProt Q8TCT1). The experiment in a line: SAR assay for compounds that inhibit PHOSPHO1. [Related pubchem assays (depositor defined):AID1545, AID1565, AID1574].
The target of assay [3] is Diphosphomevalonate decarboxylase (Streptococcus pneumoniae serotype 2 (strain D39 / NCTC 7466), UniProt Q9FD53). The experiment in a line: S. pneumoniae DPM-DC inhibition retest, confirmation, biochemical, cuvette format, coupled NADH fluorescence (AID 1028). It is filed as functional.
Sequence of Diphosphomevalonate decarboxylase (Q9FD53 whole entry): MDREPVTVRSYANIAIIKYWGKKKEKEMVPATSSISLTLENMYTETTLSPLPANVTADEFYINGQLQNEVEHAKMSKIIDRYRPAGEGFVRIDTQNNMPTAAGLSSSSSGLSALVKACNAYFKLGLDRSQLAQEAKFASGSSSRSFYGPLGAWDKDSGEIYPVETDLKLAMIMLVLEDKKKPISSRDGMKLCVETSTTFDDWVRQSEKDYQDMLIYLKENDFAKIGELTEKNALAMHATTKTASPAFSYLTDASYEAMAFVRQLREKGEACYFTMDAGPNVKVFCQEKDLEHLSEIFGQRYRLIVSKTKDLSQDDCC
In the next assay the target is Phosphomannomutase 2 (Homo sapiens, UniProt O15305). The experiment in a line: Counter screen SAR assay for PMM2 inhibitors via a fluorescence intensity assay. [Related pubchem assays (depositor defined):AID1545, AID1574].
Sequence of Phosphomannomutase 2 (O15305 whole entry): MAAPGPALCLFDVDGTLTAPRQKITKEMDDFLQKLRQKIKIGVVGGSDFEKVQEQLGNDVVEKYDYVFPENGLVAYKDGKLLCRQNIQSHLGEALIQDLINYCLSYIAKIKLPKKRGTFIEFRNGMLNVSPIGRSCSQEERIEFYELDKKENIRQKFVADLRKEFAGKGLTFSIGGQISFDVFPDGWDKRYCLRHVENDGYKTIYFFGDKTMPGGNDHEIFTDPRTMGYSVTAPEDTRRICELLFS
Assay [4] concerns the target T2, DNA dC->dU-editing enzyme APOBEC-3A (Homo sapiens, UniProt P31941). The experiment in a line: Dose Response confirmation of small molecule APOBEC3A DNA Deaminase Inhibitors via a fluorescence-based single-stranded DNA deaminase assay. [Related pubchem assays (depositor defined):AID493011, AID493024]. The assay is classed as functional.
Assay [5] concerns the target T3, Polyadenylate-binding protein 1 (Homo sapiens, UniProt P11940). The experiment in a line: PABP poly(A) RNA binding inhibitors, primary screen, biochemical, fluorescence polarization, uHTS (AID 2014).
Assay [6] addresses T4, Eukaryotic translation initiation factor 4H (Homo sapiens, UniProt Q15056). The assay can be described thus: human eIF4H binding inhibitors, primary screen, translation initiation inhibitor project, biochemical, uHTS, fluorescence polarization (AID 2012). For orientation: Polarisation of emitted light reports the rotation of a fluorescent probe.
Assay [7] has as its target T3, Polyadenylate-binding protein 1. The experiment in a line: PABP inhibition in translation initiation, SAR follow-up (AID 435018). It is filed as functional.
For assay [8], the target named is T5, DNA dC->dU-editing enzyme APOBEC-3G (Homo sapiens, UniProt Q9HC16). The assay is classed as functional.
T5 sequence (Q9HC16 whole entry): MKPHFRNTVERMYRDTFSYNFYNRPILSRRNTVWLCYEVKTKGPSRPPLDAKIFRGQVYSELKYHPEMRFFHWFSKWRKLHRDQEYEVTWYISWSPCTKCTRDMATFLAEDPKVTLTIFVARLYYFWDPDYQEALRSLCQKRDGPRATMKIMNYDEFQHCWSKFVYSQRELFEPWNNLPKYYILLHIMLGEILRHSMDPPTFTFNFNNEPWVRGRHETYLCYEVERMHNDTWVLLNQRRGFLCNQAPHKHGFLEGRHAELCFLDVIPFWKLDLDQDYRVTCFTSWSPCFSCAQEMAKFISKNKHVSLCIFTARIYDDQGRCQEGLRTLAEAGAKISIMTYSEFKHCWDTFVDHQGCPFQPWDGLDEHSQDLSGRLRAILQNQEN
Assay [9] has as its target T4, Eukaryotic translation initiation factor 4H. The assay can be described thus: eIF4H inhibition in translation initiation, SAR follow-up (AID 435011). It is filed as functional.
Assay [10] has as its target T2, DNA dC->dU-editing enzyme APOBEC-3A. The assay can be described thus: APOBEC3A DNA deaminase inhibitors, dose response, biochemical (AID 504722). The assay is classed as functional.
The target in assay [11] is T6, Rac GTPase-activating protein 1 (Homo sapiens, UniProt Q9H0H5).
T6 sequence (Q9H0H5 whole entry): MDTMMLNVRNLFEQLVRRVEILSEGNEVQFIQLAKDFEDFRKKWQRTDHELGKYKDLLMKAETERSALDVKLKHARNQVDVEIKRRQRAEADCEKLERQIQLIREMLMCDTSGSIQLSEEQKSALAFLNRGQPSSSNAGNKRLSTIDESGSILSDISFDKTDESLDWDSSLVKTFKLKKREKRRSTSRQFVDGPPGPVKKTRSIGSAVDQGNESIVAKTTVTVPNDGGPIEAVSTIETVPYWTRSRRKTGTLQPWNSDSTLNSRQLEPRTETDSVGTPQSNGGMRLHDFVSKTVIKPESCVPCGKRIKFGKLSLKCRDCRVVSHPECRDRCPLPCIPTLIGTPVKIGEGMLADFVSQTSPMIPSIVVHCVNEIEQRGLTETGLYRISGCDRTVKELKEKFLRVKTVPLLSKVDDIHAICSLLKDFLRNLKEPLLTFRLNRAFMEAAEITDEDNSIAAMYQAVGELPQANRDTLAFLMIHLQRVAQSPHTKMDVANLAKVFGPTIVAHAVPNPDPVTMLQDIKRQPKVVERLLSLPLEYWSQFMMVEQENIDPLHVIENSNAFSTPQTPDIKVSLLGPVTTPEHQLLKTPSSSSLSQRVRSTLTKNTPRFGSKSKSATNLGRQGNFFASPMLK
The experiment in a line: MgcRacGAP GTPase-activating activity inhibitors, confirmation, biochemical, ADP Hunter fluorescence, primary and confirmatory (AID 624330). The assay is classed as functional.

In assay [12] the target is T5, DNA dC->dU-editing enzyme APOBEC-3G. The experiment in a line: Dose Response confirmation of small molecule APOBEC3G DNA Deaminase Inhibitors via a fluorescence-based single-stranded DNA deaminase assay. [Related pubchem assays (depositor defined):AID493012, AID493028]. The assay is classed as functional.
Assay [13] deals with T7, Neuropeptides B/W receptor type 1 (Homo sapiens, UniProt P48145).
T7 sequence (P48145 whole entry): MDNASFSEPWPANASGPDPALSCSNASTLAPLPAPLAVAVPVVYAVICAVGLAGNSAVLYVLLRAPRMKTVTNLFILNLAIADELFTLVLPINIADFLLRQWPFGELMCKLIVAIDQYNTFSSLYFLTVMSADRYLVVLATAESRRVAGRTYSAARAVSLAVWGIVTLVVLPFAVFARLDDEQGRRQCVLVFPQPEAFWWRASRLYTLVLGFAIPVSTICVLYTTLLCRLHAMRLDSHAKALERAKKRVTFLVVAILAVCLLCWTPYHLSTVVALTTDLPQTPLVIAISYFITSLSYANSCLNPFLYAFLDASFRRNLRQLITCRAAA
The experiment in a line: GPR7 antagonist potency, late-stage follow-up, cell-based, fluorescence, dose response (AID 463251). It is filed as functional.

Assay [14] deals with Melanin-concentrating hormone receptor 1 (Homo sapiens, UniProt Q99705). The assay can be described thus: Late-stage fluorescence-based counterscreen for antagonists of the G-protein coupled receptor 7 (GPR7): cell-based dose response assay to identify antagonists of the melanin-concentrating hormone receptor 1 (MCHR1). [Related pubchem assays (depositor defined):AID1861, AID1880, AID1952, AID2148, AID2251, AID2257, AID485339]. It is filed as functional. Background: The purpose of a counterscreen is to sort out artefacts and off-target activity.
Sequence of Melanin-concentrating hormone receptor 1 (Q99705 whole entry): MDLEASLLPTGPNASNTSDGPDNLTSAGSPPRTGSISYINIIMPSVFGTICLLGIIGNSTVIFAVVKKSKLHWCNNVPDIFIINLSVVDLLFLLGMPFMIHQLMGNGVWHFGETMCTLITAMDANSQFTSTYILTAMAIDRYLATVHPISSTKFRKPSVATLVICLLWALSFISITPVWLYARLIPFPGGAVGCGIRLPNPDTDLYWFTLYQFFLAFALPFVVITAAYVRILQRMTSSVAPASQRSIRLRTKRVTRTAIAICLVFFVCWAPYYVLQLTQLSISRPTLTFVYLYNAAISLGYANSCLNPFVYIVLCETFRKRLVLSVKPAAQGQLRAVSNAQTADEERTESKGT

Assay [15] has as its target Voltage-dependent T-type calcium channel subunit alpha-1H (Homo sapiens, UniProt O95180). The assay can be described thus: Cav3.2 T-type channel inhibitors, cell-based, synthetic library set 1, calcium flux (AID 493022). The assay is classed as functional. For orientation: Calcium assays in cells follow changes in intracellular calcium, usually with a dye or a luminescent sensor.

Assay [16] has as its target Glyceraldehyde-3-phosphate dehydrogenase (Homo sapiens, UniProt P04406).
For assay [17], the target named is Alkaline phosphatase, placental type (Homo sapiens, UniProt P05187). The experiment in a line: PLAP enzyme inhibitors, confirmation, biochemical, luminescence (AID 1512). The assay is classed as functional.
Sequence of Alkaline phosphatase, placental type (P05187 whole entry): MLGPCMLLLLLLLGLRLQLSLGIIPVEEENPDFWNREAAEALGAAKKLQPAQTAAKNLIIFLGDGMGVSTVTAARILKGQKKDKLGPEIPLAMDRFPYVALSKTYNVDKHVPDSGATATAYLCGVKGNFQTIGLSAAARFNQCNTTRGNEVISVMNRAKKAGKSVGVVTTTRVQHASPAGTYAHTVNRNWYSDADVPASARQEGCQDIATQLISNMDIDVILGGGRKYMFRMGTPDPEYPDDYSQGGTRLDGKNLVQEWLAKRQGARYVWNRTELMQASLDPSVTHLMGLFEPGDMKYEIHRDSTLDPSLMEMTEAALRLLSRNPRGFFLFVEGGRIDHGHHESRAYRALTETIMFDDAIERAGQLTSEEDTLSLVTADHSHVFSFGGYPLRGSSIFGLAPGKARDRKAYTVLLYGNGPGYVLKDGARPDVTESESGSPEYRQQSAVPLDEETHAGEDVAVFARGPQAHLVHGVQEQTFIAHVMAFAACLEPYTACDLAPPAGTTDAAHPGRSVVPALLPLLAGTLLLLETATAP

The source made the active and inactive calls. For most assays here, no stated cut-off is given here; in the data, actives have a measured IC50 and inactives only a lower limit. A value given as a limit tells only on which side of the number the result lay.

T3 sequence (P11940 whole entry): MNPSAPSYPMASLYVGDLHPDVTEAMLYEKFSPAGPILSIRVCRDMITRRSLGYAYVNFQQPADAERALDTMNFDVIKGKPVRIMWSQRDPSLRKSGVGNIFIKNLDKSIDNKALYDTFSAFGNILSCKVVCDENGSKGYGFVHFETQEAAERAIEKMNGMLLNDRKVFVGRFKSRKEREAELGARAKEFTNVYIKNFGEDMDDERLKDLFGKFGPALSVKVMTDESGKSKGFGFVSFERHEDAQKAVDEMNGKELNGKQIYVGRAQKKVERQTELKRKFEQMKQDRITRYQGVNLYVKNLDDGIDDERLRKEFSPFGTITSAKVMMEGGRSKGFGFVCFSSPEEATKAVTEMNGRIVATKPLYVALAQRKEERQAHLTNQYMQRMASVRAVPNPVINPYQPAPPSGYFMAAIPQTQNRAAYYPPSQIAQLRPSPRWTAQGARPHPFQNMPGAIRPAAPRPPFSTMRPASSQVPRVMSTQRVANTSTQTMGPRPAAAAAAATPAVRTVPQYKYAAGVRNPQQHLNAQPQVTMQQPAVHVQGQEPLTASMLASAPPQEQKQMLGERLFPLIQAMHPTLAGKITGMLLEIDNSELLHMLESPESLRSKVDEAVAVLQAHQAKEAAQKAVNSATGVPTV
T2 sequence (P31941 whole entry): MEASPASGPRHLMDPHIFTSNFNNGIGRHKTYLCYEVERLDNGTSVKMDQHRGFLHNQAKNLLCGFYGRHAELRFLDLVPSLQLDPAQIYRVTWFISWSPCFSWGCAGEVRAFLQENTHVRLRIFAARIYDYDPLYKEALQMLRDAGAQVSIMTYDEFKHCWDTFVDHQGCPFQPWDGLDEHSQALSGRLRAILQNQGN
Sequence of Phosphoethanolamine/phosphocholine phosphatase (Q8TCT1 whole entry): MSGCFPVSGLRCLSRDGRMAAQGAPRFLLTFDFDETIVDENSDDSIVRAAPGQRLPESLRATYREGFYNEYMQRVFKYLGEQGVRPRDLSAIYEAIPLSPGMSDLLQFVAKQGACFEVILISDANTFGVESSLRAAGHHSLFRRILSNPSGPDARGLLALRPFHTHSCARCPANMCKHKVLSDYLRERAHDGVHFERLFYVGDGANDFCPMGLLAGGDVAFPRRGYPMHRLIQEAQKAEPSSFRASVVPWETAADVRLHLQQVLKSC
Sequence of Glyceraldehyde-3-phosphate dehydrogenase (P04406 whole entry): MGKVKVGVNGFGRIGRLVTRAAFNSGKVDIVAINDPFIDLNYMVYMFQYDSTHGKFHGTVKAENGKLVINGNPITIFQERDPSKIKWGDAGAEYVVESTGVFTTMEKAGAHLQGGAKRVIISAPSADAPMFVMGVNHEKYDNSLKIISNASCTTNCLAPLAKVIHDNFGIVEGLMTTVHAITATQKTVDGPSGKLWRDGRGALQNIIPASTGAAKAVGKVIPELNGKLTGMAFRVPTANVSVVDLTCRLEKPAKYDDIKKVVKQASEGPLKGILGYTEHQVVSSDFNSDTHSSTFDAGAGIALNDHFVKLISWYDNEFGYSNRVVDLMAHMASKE

For `CN(C)C(=O)c1cccc(-n2sc3ccccc3c2=O)c1`, the IC50 (commonly the concentration that inhibits the measured activity by half) is > 100 µM (inactive) in assay [1], 0.139 µM (active) in assay [2], 24.4 µM (active) in [3] and 76.4 µM (active) on Phosphomannomutase 2.

Take `CCOC(=O)c1ccc2c(c1)N(CC)C(=O)c1ccccc1S2`: the IC50 was 2.24 µM (active) in [4]; 12.2 µM (active) in assay [5]; > 100 µM (inactive) in assay [6]; 3.48 µM (active) in assay [7]; 4.15 µM (active) in [8]; 20.7 µM (active) in assay [9].

As to `CCOCCCn1c(=O)c2ccccc2n2c(S)nnc12`, the IC50 in assay [10] was > 100 µM (inactive); in assay [11], 21.9 µM (active); in [12], 5.54 µM (active).

In the case of `COC(=O)c1ccc(-n2ncc(Cl)c(Oc3ccc(OC)cc3)c2=O)cc1`, the IC50 is 4.1 µM (active) in assay [13] and > 20 µM (inactive) in assay [14].

On to `O=C(COc1ccccc1F)Nc1nnc(-c2ccc3c(c2)OCCO3)o1`, for which, in assay [15], the EC50 (in general, the concentration giving half of the maximal effect) is 10 µM (active).

Regarding `CN(C)C(=O)c1cc(-c2ccc(Cl)cc2Cl)n[nH]1`, the IC50 was > 100 µM (not active) in assay [16] and > 100 µM (inactive) in [17].
